Test results reported in US5681863A, “Non-metabolizable clomiphene analogs for treatment of tamoxifen-resistant tumors” (Merrell Pharmaceuticals Inc., priority 1994, dated 1997).
Structures can show the parent of a compound that is named as a salt.

Tests used:
LY2 = experiment: Antiproliferation test, LY-2 human breast cancer cells (MCF-7 variant resistant to tamoxifen); format: cell-based; settings: for IC50: Homo sapiens, MCF7, 168 h, read-out: TRIPHENYLETHYLENE IC50's AGAINST BREAST CANCER CELLS, IC50, Cell line LY2; for IC50 compared with tamoxifen, in words (both cell lines: LY-2): statement in words
Protocol: (§1) Antiproliferation test Procedure:
(§2) The tests were conducted in 96-well microtiter plates. 5×10^3 cells were added to each well. Culture medium and drug solutions were added to wells with a Perkin Elmer Cetus PRO/PETTE. The culture medium was IMEM supplemented with 5% fetal bovine serum. Eight drug concentrations were tested, in duplicate, from 0.078 micromolar (μM) to 10 μM. After four days incubation the medium was replaced with fresh medium containing drug, and after a total of seven days, the cell monolayers were fixed with trichloracetic acid and stained with sulforhodamine dye. Absorbances (492 nm) of the extracted dye solutions were measured with a Titertek Multiscan plate reader.

MCF-7 = experiment: Antiproliferation test, MCF-7 human breast cancer cells (tamoxifen-sensitive); format: cell-based; settings: for IC50: Homo sapiens, MCF7, 168 h, read-out: TRIPHENYLETHYLENE IC50's AGAINST BREAST CANCER CELLS, IC50, Cell line MCF-7; for IC50 compared with tamoxifen, in words (both cell lines: MCF-7): statement in words
Protocol: as §1, §2

Compound	IC50 (LY2) [µM]	IC50 compared with tamoxifen, in words (both cell lines: LY-2) (LY2)	IC50 (MCF-7) [µM]	IC50 compared with tamoxifen, in words (both cell lines: MCF-7) (MCF-7)
CCN(CC)CCCc1ccc(C(=C(Cl)c2ccccc2)c2ccccc2)cc1 [MDL 6866F, 1-[p-γ-diethylaminopropyl)phenyl]-1,2-diphenylchloroethylene dihydrogen citrate]	1.6	lower than the IC50 values of tamoxifen	0.32	lower than the IC50 values of tamoxifen
CCN(CC)CCSc1ccc(C(=C(Cl)c2ccccc2)c2ccccc2)cc1 [MDL 10007F, 2-[p-(2-Chloro-1,2-diphenylvinyl)-phenylthio]triethylamine Dihydrogen Citrate]	1	lower than the IC50 values of tamoxifen	0.37	lower than the IC50 values of tamoxifen
CCN(CC)CCNc1ccc(C(=C(Cl)c2ccccc2)c2ccccc2)cc1 [MDL 10222F, 2-[p-(2-Chloro-1,2-diphenylvinyl)-anilino]triethylamine Dihydrogen Citrate]	3.8	lower than the IC50 values of tamoxifen	0.7	lower than the IC50 values of tamoxifen
